Laboratory results reported in publication PMC12023841, “Unlocking the Gates: A Novel Diagnostic Molecule for Quantifying Efflux Levels in Gram‐Positive Bacteria” (Advanced Healthcare Materials, 2025).
Values after ≈ are worked out from the molar mass of the structure shown. Where two headings read alike, the source gives them in different places.

Columns and labels:
[1] = system: SA 1199‐B (norA overexpressing); experiment: microbe, parasite or virus in culture; assay type: cell-based, Staphylococcus aureus; details: Staphylococcus aureus
SA‐K1758 (∆norA) = experiment: microbe, parasite or virus in culture; assay type: cell-based; details: Staphylococcus aureus
[2] = Solution‐state stability test in MH‐II broth; assay type: physicochemical; details: 512–1 µg mL^−1, 37 °C for a day, centrifuged
Protocol: Before accessing the minimal inhibitory concentration (MIC), each phenazinium derivative was subjected to a solution‐state stability test. For this experiment, each derivative was solubilized in DMSO to achieve a primary stock solution (20 mg mL^−1). This stock was further diluted in MilliQ to achieve a working stock solution (10 mg mL^−1). […] The tubes were placed in an incubator at 37 °C for a day and later centrifuged at 25 000 rpm for 25 min.

[3] = system: SA 1199 (Wild‐type, basal); experiment: MIC, broth microdilution (CLSI); assay type: cell-based; details: Staphylococcus aureus
[4] = system: Staphylococcus aureus ATCC 25923 (Reference, basal); experiment: MIC, broth microdilution (CLSI); assay type: cell-based; details: ATCC25923
S. aureus strains [5] = details: cited from earlier work
S. epidermidis strains = system: S. epidermidis strains; set-up: method as in earlier work; details: cited from earlier work; further: key: S: Susceptible; R: Resistant; I: Intermediate
S. aureus strains [6] = details: cited from earlier work; remark: listed apart in the source
Wherever Susceptibility profile is given: key: S: Susceptible; R: Resistant; I: Intermediate.

CCCCNc1ccc2nc3cc(NCCC)c(N)cc3[n+](CCCC)c2c1 [5d1]
MIC [1]: 16 µg/mL | MIC (SA‐K1758 (∆norA)): 8 µg/mL | Solution state stability (concentration at which visible precipitation was observed) [2]: Visible precipitation was observed at 128 µg mL^−1 and beyond | MIC [3]: 16 µg/mL | MIC [4]: 16 µg/mL

CCCCNc1ccc2nc3cc(NCCCC)c(N)cc3[n+](CCCC)c2c1 [5d2]
MIC [1]: 0.5 to 1 µg/mL | MIC (SA‐K1758 (∆norA)): 0.5 µg/mL | Solution state stability (concentration at which visible precipitation was observed) [2]: Visible precipitation was observed at 512 µg mL^−1 and beyond. | MIC [3]: 1 µg/mL | MIC [4]: 1 µg/mL

CCCCCCCCNc1ccc2nc3cc(NCCC)c(N)cc3[n+](CCCCCCCC)c2c1 [5e1]
MIC [1]: 16 µg/mL | MIC (SA‐K1758 (∆norA)): 8 µg/mL | Solution state stability (concentration at which visible precipitation was observed) [2]: Visible precipitation was observed at 128 µg mL^−1 | MIC [3]: 16 µg/mL | MIC [4]: 16 µg/mL

CCCCCCCCNc1ccc2nc3cc(NC(C)(C)C)c(N)cc3[n+](CCCCCCCC)c2c1 [5e2]
MIC [1]: 8 µg/mL | MIC (SA‐K1758 (∆norA)): 8 µg/mL | Solution state stability (concentration at which visible precipitation was observed) [2]: Stable | MIC [3]: 8 µg/mL | MIC [4]: 8 µg/mL

CCCCCCCCNc1ccc2nc3cc(NCCCCCCCC)c(N)cc3[n+](CCCCCCCC)c2c1 [5e3]
MIC [1]: 64 µg/mL | MIC (SA‐K1758 (∆norA)): 64 µg/mL | Solution state stability (concentration at which visible precipitation was observed) [2]: Visible precipitation was observed at 128 µg mL^−1 | MIC [3]: 64 µg/mL | MIC [4]: 32 µg/mL

O=C(O)c1cn(C2CC2)c2cc(N3CCNCC3)c(F)cc2c1=O [CIP, Ciprofloxacin]
Susceptibility profile (S. aureus strains [5]; strain ATCC25923, ref [4]): I | Susceptibility profile (S. aureus strains [5]; strain ATCC25923_EtBr, ref [4]): I | Susceptibility profile (S. aureus strains [5]; strain SA-1199, ref [2]): S | Susceptibility profile (S. aureus strains [5]; strain SA-1199B, ref [2]): R | Susceptibility profile (S. aureus strains [5]; strain SA-K1712, ref [3]): S | Susceptibility profile (S. aureus strains [5]; strain SA-K1748, ref [3]): R | Susceptibility profile (S. aureus strains [5]; strain SA-K1758, ref [2]): S | Susceptibility profile (S. aureus strains [5]; strain SA-K2068, ref [3]): S | Susceptibility profile (S. epidermidis strains): I

CC[n+]1c(-c2ccccc2)c2cc(N)ccc2c2ccc(N)cc21 [EtBrCW, Ethidium bromide]
Efflux detection method EtBrCW (S. aureus strains [6]; strain ATCC25923, ref [4]): Negative | Efflux detection method EtBrCW (S. aureus strains [6]; strain ATCC25923_EtBr, ref [4]): Positive (isolates were considered positive if they exhibited fluorescence at the highest EtBr concentration tested (> 2.5 mg/L)) | Efflux detection method EtBrCW (S. aureus strains [6]; strain BIOS-H1, ref [7]): Negative | Efflux detection method EtBrCW (S. aureus strains [6]; strain BIOS-H2, ref [7]): Negative | Efflux detection method EtBrCW (S. aureus strains [6]; strain BIOS-H3, ref [7]): Negative | Efflux detection method EtBrCW (S. aureus strains [6]; strain BIOS-H5, ref [7]): Negative | Efflux detection method EtBrCW (S. aureus strains [6]; strain BIOS-H6, ref [7]): Negative | Efflux detection method EtBrCW (S. aureus strains [6]; strain BIOS-H12, ref [7]): Negative | Efflux detection method EtBrCW (S. aureus strains [6]; strain BIOS-H13, ref [7]): Negative | Efflux detection method EtBrCW (S. aureus strains [6]; strain BIOS-H17, ref [7]): Negative | Efflux detection method EtBrCW (S. aureus strains [6]; strain BIOS-H20, ref [7]): Negative | Efflux detection method EtBrCW (S. aureus strains [6]; strain BIOS-H21, ref [7]): Negative | Efflux detection method EtBrCW (S. aureus strains [6]; strain BIOS-H22, ref [7]): Negative | Efflux detection method EtBrCW (S. aureus strains [6]; strain BIOS-H25, ref [7]): Negative | Efflux detection method EtBrCW (S. aureus strains [6]; strain BIOS-H28, ref [7]): Negative | Efflux detection method EtBrCW (S. aureus strains [6]; strain BIOS-H29, ref [7]): Negative | Efflux detection method EtBrCW (S. aureus strains [6]; strain BIOS-H30, ref [7]): Negative | Efflux detection method EtBrCW (S. aureus strains [6]; strain BIOS-H32, ref [7]): Negative | Efflux detection method EtBrCW (S. aureus strains [6]; strain BIOS-V21, ref [8]): Negative | Efflux detection method EtBrCW (S. aureus strains [6]; strain BIOS-V31, ref [8]): Negative | Efflux detection method EtBrCW (S. aureus strains [6]; strain BIOS-V60, ref [8]): Negative | Efflux detection method EtBrCW (S. aureus strains [6]; strain BIOS-V61, ref [8]): Negative | Efflux detection method EtBrCW (S. aureus strains [6]; strain BIOS-V62, ref [8]): Negative | Efflux detection method EtBrCW (S. aureus strains [6]; strain BIOS-V74, ref [8]): Negative | Efflux detection method EtBrCW (S. aureus strains [6]; strain BIOS-V75, ref [8]): Negative | Efflux detection method EtBrCW (S. aureus strains [6]; strain BIOS-V85, ref [8]): Negative | Efflux detection method EtBrCW (S. aureus strains [6]; strain BIOS-V118, ref [8]): Negative | Efflux detection method EtBrCW (S. aureus strains [6]; strain BIOS-V128, ref [8]): Negative | Efflux detection method EtBrCW (S. aureus strains [6]; strain BIOS-V147, ref [8]): Negative | Efflux detection method EtBrCW (S. aureus strains [6]; strain BIOS-V151, ref [8]): Negative | Efflux detection method EtBrCW (S. aureus strains [6]; strain BIOS-V156, ref [8]): Negative | Efflux detection method EtBrCW (S. aureus strains [6]; strain BIOS-V157, ref [8]): Negative | Efflux detection method EtBrCW (S. aureus strains [6]; strain BIOS-V158, ref [8]): Negative | Efflux detection method EtBrCW (S. aureus strains [6]; strain BIOS-V203, ref [8]): Negative | Efflux detection method EtBrCW (S. aureus strains [6]; strain BIOS-V245, ref [8]): Negative | Efflux detection method EtBrCW (S. aureus strains [6]; strain BIOS-V250, ref [8]): Negative | Efflux detection method EtBrCW (S. aureus strains [6]; strain BIOS-V257, ref [8]): Negative | Efflux detection method EtBrCW (S. aureus strains [6]; strain BIOS-V279, ref [8]): Negative | Efflux detection method EtBrCW (S. aureus strains [6]; strain BIOS-V295, ref [8]): Negative | Efflux detection method EtBrCW (S. aureus strains [6]; strain SA-1199, ref [2]): Negative | Efflux detection method EtBrCW (S. aureus strains [6]; strain SA-1199B, ref [2]): Positive (isolates were considered positive if they exhibited fluorescence at the highest EtBr concentration tested (> 2.5 mg/L)) | Efflux detection method EtBrCW (S. aureus strains [6]; strain SA-K1748, ref [3]): Positive (isolates were considered positive if they exhibited fluorescence at the highest EtBr concentration tested (> 2.5 mg/L)) | Efflux detection method EtBrCW (S. aureus strains [6]; strain SA-K1758, ref [2]): Negative | Efflux detection method EtBrCW (S. aureus strains [6]; strain SM 1, ref [6]): Positive (isolates were considered positive if they exhibited fluorescence at the highest EtBr concentration tested (> 2.5 mg/L)) | Efflux detection method EtBrCW (S. aureus strains [6]; strain SM 2, ref [6]): Negative^* (Isolates marked with (*) displayed fluorescence at intermediate EtBr concentrations (1–2 mg/L)) | Efflux detection method EtBrCW (S. aureus strains [6]; strain SM 3, ref [6]): Negative^* (Isolates marked with (*) displayed fluorescence at intermediate EtBr concentrations (1–2 mg/L)) | Efflux detection method EtBrCW (S. aureus strains [6]; strain SM 4, ref [6]): Negative | Efflux detection method EtBrCW (S. aureus strains [6]; strain SM 5, ref [6]): Negative | Efflux detection method EtBrCW (S. aureus strains [6]; strain SM 6, ref [6]): Negative | Efflux detection method EtBrCW (S. aureus strains [6]; strain SM 7, ref [6]): Negative | Efflux detection method EtBrCW (S. aureus strains [6]; strain SM 8, ref [6]): Negative^* (Isolates marked with (*) displayed fluorescence at intermediate EtBr concentrations (1–2 mg/L))

CCn1cc(C(=O)O)c(=O)c2cc(F)c(N3CCNCC3)cc21 [NOR, norfloxacin, reference compound]
MIC [1]: 32 µg/mL (≈ 100 µM) | MIC (SA‐K1758 (∆norA)): 0.25 µg/mL (≈ 0.783 µM) | MIC ([3]; SA 1199 (Wild‐type, basal), read-out: MIC): 2 µg/mL (≈ 6.26 µM) | MIC [4]: 2 µg/mL (≈ 6.26 µM)
